For eleven compounds, MIC and Ratio results are on record in ChEMBL document CHEMBL5143638, “Natural aloe emodin-hybridized sulfonamide aminophosphates as novel potential membrane-perturbing and DNA-intercalating agents against Enterococcus faecalis” (Bioorg Med Chem Lett, 2022).

Each structure is given as a SMILES string. Converted amounts (≈) assume the structure as drawn.

Assay type in all cases: functional
For assay [1], the system named is Acinetobacter baumannii. Briefly: Antibacterial activity against Acinetobacter baumannii assessed as inhibition of bacterial growth measured after 24 hrs by CLSI based broth microdilution method.
The subject of assay [2] is Enterococcus faecalis. As to the kind of experiment: Antibacterial activity against Enterococcus faecalis assessed as inhibition of bacterial growth measured after 24 hrs by CLSI based broth microdilution method.
The test system of assay [3] is Pseudomonas aeruginosa. Briefly: Antibacterial activity against Pseudomonas aeruginosa assessed as inhibition of bacterial growth measured after 24 hrs by CLSI based broth microdilution method.
For assay [4], the system named is Staphylococcus aureus. Briefly: Antibacterial activity against methicillin-resistant Staphylococcus aureus N315 assessed as inhibition of bacterial growth measured after 24 hrs by CLSI based broth microdilution method.
Assay [5] has as its system Klebsiella pneumoniae. As to the kind of experiment: Antibacterial activity against Klebsiella pneumoniae assessed as inhibition of bacterial growth measured after 24 hrs by CLSI based broth microdilution method.
Assay [6] has as its system Staphylococcus aureus. Briefly: Antibacterial activity against Staphylococcus aureus ATCC 25923 assessed as inhibition of bacterial growth measured after 24 hrs by CLSI based broth microdilution method.
Assay [7] relates to Escherichia coli. Briefly: Antibacterial activity against Escherichia coli ATCC 25922 assessed as inhibition of bacterial growth measured after 24 hrs by CLSI based broth microdilution method.
The test system of assay [8] is Staphylococcus aureus. As to the kind of experiment: Antibacterial activity against Staphylococcus aureus assessed as inhibition of bacterial growth measured after 24 hrs by CLSI based broth microdilution method.
Assay [9] deals with Escherichia coli. As to the kind of experiment: Antibacterial activity against Escherichia coli assessed as inhibition of bacterial growth measured after 24 hrs by CLSI based broth microdilution method.
The subject of assay [10] is Pseudomonas aeruginosa. Briefly: Antibacterial activity against Pseudomonas aeruginosa ATCC 27853 assessed as inhibition of bacterial growth measured after 24 hrs by CLSI based broth microdilution method.
In assay [11] the test system is Staphylococcus aureus. As to the kind of experiment: Potency index, ratio of norfloxacin MIC to test compound MIC for antibacterial activity against Staphylococcus aureus assessed as inhibition of bacterial growth measured after 24 hrs by CLSI based broth microdilution method.
For assay [12], the system named is Staphylococcus aureus. As to the kind of experiment: Potency index, ratio of sulfisoxazole MIC to test compound MIC for antibacterial activity against Staphylococcus aureus assessed as inhibition of bacterial growth measured after 24 hrs by CLSI based broth microdilution method.
For assay [13], the system named is Klebsiella pneumoniae. Briefly: Potency index, ratio of norfloxacin MIC to test compound MIC for antibacterial activity against Klebsiella pneumoniae assessed as inhibition of bacterial growth measured after 24 hrs by CLSI based broth microdilution method.
In assay [14] the test system is Staphylococcus aureus. As to the kind of experiment: Potency index, ratio of sulfamethoxazole MIC to test compound MIC for antibacterial activity against Staphylococcus aureus assessed as inhibition of bacterial growth measured after 24 hrs by CLSI based broth microdilution method.
Assay [15] relates to Klebsiella pneumoniae. Briefly: Potency index, ratio of sulfamethoxazole MIC to test compound MIC for antibacterial activity against Klebsiella pneumoniae assessed as inhibition of bacterial growth measured after 24 hrs by CLSI based broth microdilution method.
Assay [16] concerns Klebsiella pneumoniae. As to the kind of experiment: Potency index, ratio of aloe emodin MIC to test compound MIC for antibacterial activity against Klebsiella pneumoniae assessed as inhibition of bacterial growth measured after 24 hrs by CLSI based broth microdilution method.
Assay [17] concerns Staphylococcus aureus. Briefly: Potency index, ratio of sulfamethoxazole MIC to test compound MIC for antibacterial activity against Staphylococcus aureus ATCC 25923 assessed as inhibition of bacterial growth measured after 24 hrs by CLSI based broth microdilution method.
The test system of assay [18] is Staphylococcus aureus. As to the kind of experiment: Potency index, ratio of norfloxacin MIC to test compound MIC for antibacterial activity against methicillin-resistant Staphylococcus aureus N315 assessed as inhibition of bacterial growth measured after 24 hrs by CLSI based broth microdilution method.

With `Cc1cc(NS(=O)(=O)c2ccc(N)cc2)no1` [SULFAMETHOXAZOLE], the MIC in assay [1] stood at 4 µg/mL (≈ 15.8 µM); in assay [2], 16 µg/mL (≈ 63.2 µM); in [3] it was 4 µg/mL (≈ 15.8 µM); in assay [4], 4 µg/mL (≈ 15.8 µM); in assay [5] it was 8 µg/mL (≈ 31.6 µM); in assay [6], 32 µg/mL (≈ 126 µM). Also, the MIC is 4 µg/mL (≈ 15.8 µM) in [7], 8 µg/mL (≈ 31.6 µM) in assay [8], 64 µg/mL (≈ 253 µM) in [9] and 2 µg/mL (≈ 7.9 µM) in assay [10].

In the case of `O=C1c2cccc(O)c2C(=O)c2c(O)cc(C(Nc3ccc(S(=O)(=O)Nc4ncccn4)cc3)P(=O)(Oc3ccccc3)Oc3ccccc3)cc21` (stereo not drawn), the MIC in assay [1] is 64 µg/mL (≈ 87.1 µM); in [2], 64 µg/mL (≈ 87.1 µM); in assay [3], 128 µg/mL (≈ 174 µM); in [4], 64 µg/mL (≈ 87.1 µM); in [5] it was 128 µg/mL (≈ 174 µM); in [6], 256 µg/mL (≈ 348 µM). For the same compound, the MIC was determined as 32 µg/mL (≈ 43.6 µM) in assay [7], 32 µg/mL (≈ 43.6 µM) in [8], 64 µg/mL (≈ 87.1 µM) in assay [9] and 64 µg/mL (≈ 87.1 µM) in assay [10].

As to `CCCCOP(=O)(OCCCC)C(Nc1ccc(S(=O)(=O)Nc2onc(C)c2C)cc1)c1cc(O)c2c(c1)C(=O)c1cccc(O)c1C2=O` (stereo not drawn), the MIC is 8 µg/mL (≈ 11.2 µM) in [1]; 128 µg/mL (≈ 180 µM) in assay [2]; 8 µg/mL (≈ 11.2 µM) in [3]; 64 µg/mL (≈ 89.9 µM) in assay [4]; 16 µg/mL (≈ 22.5 µM) in [5]; 2 µg/mL (≈ 2.81 µM) in [6]. Further, the MIC in [7] came out at 8 µg/mL (≈ 11.2 µM); in [8], 4 µg/mL (≈ 5.62 µM); in [9], 256 µg/mL (≈ 360 µM); in assay [10] it was 256 µg/mL (≈ 360 µM). For the same compound, the Ratio in assay [11] turned out to be 2; in assay [12], 4.

For `CCCCOP(=O)(OCCCC)C(Nc1ccc(S(=O)(=O)Nc2nccs2)cc1)c1cc(O)c2c(c1)C(=O)c1cccc(O)c1C2=O` (stereo not drawn), the MIC in assay [1], in [2], in assay [3], in assay [4], in assay [5] and in [6] was 256 µg/mL (≈ 366 µM) in each case. Moreover, the MIC in assay [7], in assay [8], in assay [9] and in [10] was 256 µg/mL (≈ 366 µM) in each case.

Take `CCOP(=O)(OCC)C(Nc1ccc(S(=O)(=O)Nc2onc(C)c2C)cc1)c1cc(O)c2c(c1)C(=O)c1cccc(O)c1C2=O` (stereo not drawn): the minimum inhibitory concentration (MIC) worked out at 256 µg/mL (≈ 390 µM) in [1]; 256 µg/mL (≈ 390 µM) in [2]; 256 µg/mL (≈ 390 µM) in assay [3]; 16 µg/mL (≈ 24.4 µM) in [4]; 256 µg/mL (≈ 390 µM) in assay [5]; 256 µg/mL (≈ 390 µM) in [6]. Moreover, the MIC in assay [7], in assay [8], in [9] and in [10] was 256 µg/mL (≈ 390 µM) in each case.

Consider `CCCCOP(=O)(OCCCC)C(Nc1ccc(S(N)(=O)=O)cc1)c1cc(O)c2c(c1)C(=O)c1cccc(O)c1C2=O` (stereo not drawn), for which the MIC was 256 µg/mL (≈ 415 µM) in assay [1]; 128 µg/mL (≈ 208 µM) in [2]; 256 µg/mL (≈ 415 µM) in assay [3]; 64 µg/mL (≈ 104 µM) in [4]; 256 µg/mL (≈ 415 µM) in assay [5]; 256 µg/mL (≈ 415 µM) in assay [6]. The MIC in [7], in [8], in assay [9] and in [10] was 256 µg/mL (≈ 415 µM) in each case.

As to `CCOP(=O)(OCC)C(Nc1ccc(S(=O)(=O)Nc2cc(C)on2)cc1)c1cc(O)c2c(c1)C(=O)c1cccc(O)c1C2=O` (stereo not drawn), the MIC in assay [1] was 64 µg/mL (≈ 99.8 µM); in assay [2], 256 µg/mL (≈ 399 µM); in assay [3], 32 µg/mL (≈ 49.9 µM); in [4], 64 µg/mL (≈ 99.8 µM); in [5] it was 2 µg/mL (≈ 3.12 µM); in assay [6] it was 0.5 µg/mL (≈ 0.779 µM). Besides, the MIC in assay [7] amounted to 32 µg/mL (≈ 49.9 µM); in assay [8], 0.5 µg/mL (≈ 0.779 µM); in [9] it was 64 µg/mL (≈ 99.8 µM); in assay [10] it was 32 µg/mL (≈ 49.9 µM). Moreover, the Ratio in assay [13] worked out at 2; in assay [14], 16; in assay [15] it was 4; in [16] it was 32; in assay [17] it was 64.

Take `CCOP(=O)(OCC)C(Nc1ccc(S(=O)(=O)Nc2ccccn2)cc1)c1cc(O)c2c(c1)C(=O)c1cccc(O)c1C2=O` (stereo not drawn): the MIC amounted to 128 µg/mL (≈ 201 µM) in assay [1]; 64 µg/mL (≈ 100 µM) in assay [2]; 256 µg/mL (≈ 402 µM) in [3]; 2 µg/mL (≈ 3.14 µM) in assay [4]; 256 µg/mL (≈ 402 µM) in assay [5]; 128 µg/mL (≈ 201 µM) in assay [6]. For the same compound, the MIC was determined as 256 µg/mL (≈ 402 µM) in assay [7], 64 µg/mL (≈ 100 µM) in assay [8], 256 µg/mL (≈ 402 µM) in [9] and 64 µg/mL (≈ 100 µM) in [10]. For the same compound, the Ratio in [18] is reported as 4.

`CC(C)OP(=O)(OC(C)C)C(Nc1ccc(S(=O)(=O)Nc2nccs2)cc1)c1cc(O)c2c(c1)C(=O)c1cccc(O)c1C2=O` (stereo not drawn): the MIC in assay [1] was 256 µg/mL (≈ 381 µM); in [2] it was 256 µg/mL (≈ 381 µM); in [3] it was 256 µg/mL (≈ 381 µM); in [4], 256 µg/mL (≈ 381 µM); in [5], 256 µg/mL (≈ 381 µM); in assay [6] it was 32 µg/mL (≈ 47.6 µM). The MIC in [7] was found to be 128 µg/mL (≈ 191 µM); in [8], 256 µg/mL (≈ 381 µM); in [9] it was 256 µg/mL (≈ 381 µM); in assay [10], 128 µg/mL (≈ 191 µM).

In the case of `NS(=O)(=O)c1ccc(NC(c2cc(O)c3c(c2)C(=O)c2cccc(O)c2C3=O)P(=O)(Oc2ccccc2)Oc2ccccc2)cc1` (stereo not drawn), the MIC in assay [1] is 16 µg/mL (≈ 24.4 µM); in [2], 32 µg/mL (≈ 48.7 µM); in assay [3], 128 µg/mL (≈ 195 µM); in assay [4], 16 µg/mL (≈ 24.4 µM); in [5], 128 µg/mL (≈ 195 µM); in [6], 256 µg/mL (≈ 390 µM). Besides, the MIC in assay [7] was 32 µg/mL (≈ 48.7 µM); in assay [8] it was 64 µg/mL (≈ 97.5 µM); in assay [9] it was 64 µg/mL (≈ 97.5 µM); in [10], 32 µg/mL (≈ 48.7 µM).

For `Cc1cc(NS(=O)(=O)c2ccc(NC(c3cc(O)c4c(c3)C(=O)c3cccc(O)c3C4=O)P(=O)(Oc3ccccc3)Oc3ccccc3)cc2)no1` (stereo not drawn), the MIC was 64 µg/mL (≈ 86.8 µM) in assay [1]; 64 µg/mL (≈ 86.8 µM) in [2]; 64 µg/mL (≈ 86.8 µM) in [3]; 64 µg/mL (≈ 86.8 µM) in [4]; 128 µg/mL (≈ 174 µM) in assay [5]; 256 µg/mL (≈ 347 µM) in assay [6]. In addition, the MIC in assay [7] came to 32 µg/mL (≈ 43.4 µM); in [8], 64 µg/mL (≈ 86.8 µM); in assay [9], 64 µg/mL (≈ 86.8 µM); in assay [10] it was 256 µg/mL (≈ 347 µM).
